Measured values reported in PubChem BioAssay AID2384 (Southern Research Specialized Biocontainment Screening …, 2010).
pIC50: −log10 of the molar value.

tested on: S. typhi GFP reporter counter-screen, fluorescence, 4 h; assay: inhibitors in S. typhi counter-screen strain, dose response, counter-screen for PhoP regulon inhibitor project, fluorescence, 4 h (AID 2384)

| Structure (SMILES) | pIC50 |
| --- | --- |
| C#CCOCCOCCOCCNc1nc(N2CCN(C(=O)CCCCCCCCCCNC(=O)Cn3cc(C[C@@H](C)O)nn3)CC2)nc(N2CCN(C(=O)CCCCCCCCCCNC(=O)[C@@H]([C@H](C)CC)n3cc(CCCCCN)nn3)CC2)n1 | 3.85 |
| C#CCOCCOCCOCCNc1nc(N2CCN(C(=O)[C@H](CCCCN)n3cc([C@@H](N)CC(C)C)nn3)CC2)nc(N2CCN(C(=O)[C@H](Cc3cc4ccccc4[nH]3)n3cc([C@@H](N)Cc4ccc(O)cc4)nn3)CC2)n1 | 4.57 |
| c1cc2c(cc1C1CCCCC1)c1c3n2CCN=C3CCC1 | 4.42 |
| Cc1ccc(C(=O)N/C(=C\c2ccc(-c3ccc(Cl)cc3)o2)C(=O)NCCCN(C)C)cc1 | 4.44 |
| Nc1nc(N)c(Cc2ccc(Cl)cc2Cl)c(N)n1 | 4.21 |
| C(=N/Nc1nccs1)/c1cccnc1 | 4.31 |
| CC[C@@H](C)[C@H](CNC)NC[C@@H](Cc1cccc2ccccc12)NCCc1cccc(C(F)(F)F)c1 | 4.73 |
| O=C1OCCN1/N=C/c1ccc([N+](=O)[O-])o1 | 4.55 |
| COc1cccc(Nc2nc(NCCO)c3ccccc3n2)c1 | 4.24 |
| Nc1nonc1-n1nnc(C(=O)N/N=C/c2ccccc2O)c1CN1CCCC1 | 3.95 |
| CC(=O)c1cc(O)c2ccccc2c1O | 3.97 |
| O=[N+]([O-])c1cc(O)c2ncccc2c1 | 4.80 |
| Oc1ccc(COCc2ccccc2)c2cccnc12 | 4.53 |
| Cc1cc(=O)[nH]c(-n2nc(C)cc2C)n1 | 4.16 |
| Cc1ccc(OCC(O)Cn2c(=N)n(CCN3CCCCC3)c3ccccc32)cc1 (stereo not given) | 4.87 |
| CC[N+](C)(CC)CCC[n+]1c(-c2ccccc2)c2cc(N)ccc2c2ccc(N)cc21 | 3.89 |
| OCCN1CCN(CCCN2c3ccccc3Sc3ccc(Cl)cc32)CC1 | 4.13 |
| NC(N)=Nc1nc(-c2ccccc2)c2cc(Cl)ccc2n1 | 4.04 |
| Cc1nc2ccccc2c(N)c1C(=O)/C=C/c1ccccc1 | 4.00 |
| Cc1cc(C)c2c(N)c3ccccc3nc2n1 | 4.07 |
| O=C(N=Nc1c(O)[nH]c2ccccc12)c1cc(-c2cccs2)[nH]n1 | 4.09 |
| O=C(NC(=S)NNC(=O)c1ccco1)c1ccc(Br)cc1 | 4.12 |
| Nc1ncncc1-c1ccc(Cl)cc1 | 4.18 |

| Structure (SMILES) | pIC50 |
| --- | --- |
| O=C(N/N=C/c1cc(Cl)ccc1O)c1ccncc1 | 4.76 |
| CCOc1ccc(OCCSc2nc(C)cc(=O)[nH]2)cc1 | 3.83 |
| Cc1ccc(-c2c[n+](CC(=O)Nc3nc(-c4ccccc4)cs3)c3n2CCC3)cc1 | 4.67 |
| O=C(N/N=C\c1cccc([N+](=O)[O-])c1O)C1COc2ccccc2O1 (stereo not given) | 4.93 |
| Cc1nc(N)c(Cc2ccc(Cl)cc2Cl)c(N)n1 | 4.52 |
| Nc1nonc1C(=O)N/N=C/c1cc(Br)ccc1O | 4.85 |
| c1ccc(CN2CCC(Nc3nc(-c4cccs4)nc4ccccc34)CC2)cc1 | 4.43 |
| O=C(CN1CC[n+]2c(-c3cccs3)csc21)c1ccc(-c2ccccc2)cc1 | 4.69 |
| Cc1ccc(-c2cc(-c3ccc(C)cc3)[n+](-c3ccccc3)c(-c3ccc(C)cc3)c2)cc1 | 4.63 |
| S=C(Nc1cc(Cl)cc(Cl)c1)NC1CCN(Cc2ccccc2)CC1 | 4.09 |
| COc1ccc(CCN2CCC(Nc3nc4ccccc4n3Cc3ccc(F)cc3)CC2)cc1 | 4.53 |
| CC(C(=O)NC1C=CS(=O)(=O)C1)N1C(=O)/C(=C/c2cccc(Cl)c2)SC1=S (stereo not given) | 4.23 |
| COc1cc(CNCCc2ccccc2)cc(Cl)c1OCc1ccccc1 | 4.42 |
| CCN(CC)C(=S)SSC(=S)N(CC)CC | 4.13 |
| O=C1CSC(=S)N1c1cccc(O)c1 | 4.22 |
| O=C(N/N=C/c1cccs1)c1ccc2nc[nH]c2c1 | 3.90 |
| CN(C)CCN(C(=O)C1=COCCO1)c1nc2ccc(Cl)cc2s1 | 4.31 |
| CC(=O)NC(c1cccs1)c1cc([N+](=O)[O-])c2cccnc2c1O (stereo not given) | 4.59 |
| O=C(N[C@H](CO)[C@H](O)c1ccc([N+](=O)[O-])cc1)C(Cl)Cl | 5.80 |
| COc1ccc2[nH]c3c(C)c4ccncc4c(C)c3c2c1 | 4.67 |
| COc1c(N2CCN[C@H](C)C2)c(F)cc2c(=O)c(C(=O)O)cn(C3CC3)c12 | 5.30 |
| O=C1OCC(CO)(CO)N=C1NNc1ccc(Cl)c(Cl)c1 | 3.84 |
